Measurements published in patent US20040156869A1, “2-substituted quinazolin-4-ylamine analogues” (Neurogen Corporation, priority 2002, published 2004).

What follows are compounds tested against human capsaicin receptor (VR1) (Homo sapiens, UniProt Q8NER1) (assay: Capsaicin receptor binding assay ([3H]RTX competition, VR1-transfected HEK293 membranes)).
Sequence of human capsaicin receptor (VR1) (Q8NER1 whole entry): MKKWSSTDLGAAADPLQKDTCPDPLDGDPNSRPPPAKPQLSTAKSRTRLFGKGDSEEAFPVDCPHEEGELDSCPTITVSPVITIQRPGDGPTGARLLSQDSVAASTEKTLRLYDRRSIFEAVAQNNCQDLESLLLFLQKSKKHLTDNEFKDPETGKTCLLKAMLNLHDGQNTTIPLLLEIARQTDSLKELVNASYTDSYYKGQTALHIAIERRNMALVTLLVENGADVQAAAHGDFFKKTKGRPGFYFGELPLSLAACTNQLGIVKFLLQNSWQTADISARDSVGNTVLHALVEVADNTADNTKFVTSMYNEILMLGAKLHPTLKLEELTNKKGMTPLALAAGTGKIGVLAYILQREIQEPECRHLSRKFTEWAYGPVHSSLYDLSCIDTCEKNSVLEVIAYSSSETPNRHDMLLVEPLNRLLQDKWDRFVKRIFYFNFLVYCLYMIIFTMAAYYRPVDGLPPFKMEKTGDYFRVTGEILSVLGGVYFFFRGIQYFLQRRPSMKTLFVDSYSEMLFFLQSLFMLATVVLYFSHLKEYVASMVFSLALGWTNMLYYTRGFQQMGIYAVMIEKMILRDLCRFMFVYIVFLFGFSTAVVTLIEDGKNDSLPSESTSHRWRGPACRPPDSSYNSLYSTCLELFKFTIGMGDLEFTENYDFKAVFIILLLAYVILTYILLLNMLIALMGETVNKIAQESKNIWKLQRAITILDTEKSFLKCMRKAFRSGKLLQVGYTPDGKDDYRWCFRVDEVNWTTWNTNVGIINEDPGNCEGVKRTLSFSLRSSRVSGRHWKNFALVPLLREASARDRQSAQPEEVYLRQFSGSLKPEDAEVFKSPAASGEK

Compound	Ki
C[C@@H]1CN(Cc2nc(Nc3ccc(C(F)(F)F)cc3)c3ccc(-c4ncccc4Cl)cc3n2)C[C@@H](C)O1 [Compound 606, (R,R)-[7-(3-Chloro-pyridin-2-yl)-2-(2,6-dimethyl-morpholin-4-ylmethyl)-quinazolin-4-yl]-(4-trifluoromethyl-phenyl)-amine]	< 1000 nM
C[C@@H]1CN(Cc2nc(Nc3ccc(C(C)(C)C)nc3)c3ccc(-c4ncccc4Cl)cc3n2)C[C@@H](C)O1 [Compound 607, (R,R)-(6-tert-Butyl-pyridin-3-yl)-[7-(3-chloro-pyridin-2-yl)-2-(2,6-dimethyl-morpholin-4-ylmethyl)-quinazolin-4-yl]-amine]	< 1000 nM
C[C@H]1CN(Cc2nc(Nc3ccc(C(F)(F)F)nc3)c3ccc(-c4ncccc4Cl)cc3n2)C[C@H](C)O1 [Compound 608, (S,S)-[7-(3-Chloro-pyridin-2-yl)-2-(2,6-dimethyl-morpholin-4-ylmethyl)-quinazolin-4-yl]-(6-trifluoromethyl-pyridin-3-yl)-amine]	< 1000 nM
C[C@H]1CN(Cc2nc(Nc3ccc(C(C)(C)C)nc3)c3ccc(-c4ncccc4C(F)(F)F)cc3n2)C[C@H](C)O1 [Compound 609, (S,S)-(6-tert-Butyl-pyridin-3-yl)-[2-(2,6-dimethyl-morpholin-4-ylmethyl)-7-(3-trifluoromethyl-pyridin-2-yl)-quinazolin-4-yl]-amine]	< 1000 nM
C[C@@H]1CN(Cc2nc(Nc3ccc(C(F)(F)F)nc3)c3ccc(-c4ncccc4Cl)cc3n2)C[C@@H](C)O1 [Compound 610, (R,R)-[7-(3-Chloro-pyridin-2-yl)-2-(2,6-dimethyl-morpholin-4-ylmethyl)-quinazolin-4-yl]-(6-trifluoromethyl-pyridin-3-yl)-amine]	< 1000 nM
C[C@@H]1CN(Cc2nc(Nc3ccc(C(C)(C)C)nc3)c3ccc(-c4ncccc4C(F)(F)F)cc3n2)C[C@@H](C)O1 [Compound 611, (R,R)-(6-tert-Butyl-pyridin-3-yl)-[2-(2,6-dimethyl-morpholin-4-ylmethyl)-7-(3-trifluoromethyl-pyridin-2-yl)-quinazolin-4-yl]-amine]	< 1000 nM
C[C@@H]1CN(Cc2nc(Nc3ccc(C(F)(F)F)cc3)c3cnc(-c4ccccc4C(F)(F)F)cc3n2)C[C@H](C)O1 [Compound 612, [2-(2,6-Dimethyl-morpholin-4-ylmethyl)-7-(2-trifluoromethyl-phenyl)-pyrido[4,3-d]pyrimidin-4-yl]-(4-trifluoromethyl-phenyl)-amine (cis)]	< 1000 nM
CC(C)c1ccc(Nc2nc(CN3C[C@@H](C)O[C@@H](C)C3)nc3cc(-c4ncccc4C(F)(F)F)cnc23)cc1 [Compound 613, [2-(2,6-Dimethyl-morpholin-4-ylmethyl)-7-(3-trifluoromethyl-pyridin-2-yl)-pyrido[3,2-d]pyrimidin-4-yl]-(4-isopropyl-phenyl)-amine (cis)]	< 1000 nM
C[C@@H]1CN(Cc2nc(Nc3ccc(C(C)(C)C)cc3)c3cnc(-c4ccccc4C(F)(F)F)cc3n2)C[C@H](C)O1 [Compound 614, (4-tert-Butyl-phenyl)-[2-(2,6-dimethyl-morpholin-4-ylmethyl)-7-(2-trifluoromethyl-phenyl)-pyrido[4,3-d]pyrimidin-4-yl]-amine (cis)]	< 1000 nM
C[C@@H]1CN(Cc2nc(Nc3ccc(C(F)(F)F)cc3)c3ncc(-c4ncccc4Cl)cc3n2)C[C@H](C)O1 [Compound 615, [7-(3-Chloro-pyridin-2-yl)-2-(2,6-dimethyl-morpholin-4-ylmethyl)-pyrido[3,2-d]pyrimidin-4-yl]-(4-trifluoromethyl-phenyl)-amine (cis)]	< 1000 nM
C[C@@H]1CN(Cc2nc(Nc3ccc(C(F)(F)F)nc3)c3ncc(-c4ncccc4Cl)cc3n2)C[C@H](C)O1 [Compound 616, [7-(3-Chloro-pyridin-2-yl)-2-(2,6-dimethyl-morpholin-4-ylmethyl)-pyrido[3,2-d]pyrimidin-4-yl]-(6-trifluoromethyl-pyridin-3-yl)-amine (cis)]	< 1000 nM
C[C@@H]1CN(Cc2nc(Nc3ccc(S(=O)(=O)C(F)(F)F)cc3)c3ncc(-c4ncccc4Cl)cc3n2)C[C@H](C)O1 [Compound 617, [7-(3-Chloro-pyridin-2-yl)-2-(2,6-dimethyl-morpholin-4-ylmethyl)-pyrido[3,2-d]pyrimidin-4-yl]-(4-trifluoromethanesulfonyl-phenyl)-amine (cis)]	< 1000 nM
Cc1cccnc1-c1ccc2c(Nc3ccc(C(F)(F)F)cc3)nc(CN3C[C@@H](C)O[C@@H](C)C3)nc2c1 [Compound 618, [2-(2,6-Dimethyl-morpholin-4-ylmethyl)-7-(3-methyl-pyridin-2-yl)-quinazolin-4-yl]-(4-trifluoromethyl-phenyl)-amine (cis)]	< 1000 nM
C[C@@H]1CN(Cc2nc(Nc3ccc(C(F)(F)F)cc3)c3ccc(-c4ccccn4)cc3n2)C[C@H](C)O1 [Compound 619, [2-(2,6-Dimethyl-morpholin-4-ylmethyl)-7-pyridin-2-yl-quinazolin-4-yl]-(4-trifluoromethyl-phenyl)-amine (cis)]	< 1000 nM
C[C@@H]1CN(Cc2nc(Nc3ccc(C(F)(F)F)cc3)c3ccc(-c4ccccc4C(F)(F)F)cc3n2)C[C@H](C)O1 [Compound 620, [2-(2,6-Dimethyl-morpholin-4-ylmethyl)-7-(2-trifluoromethyl-phenyl)-quinazolin-4-yl]-(4-trifluoromethyl-phenyl)-amine (cis)]	< 1000 nM
C[C@@H]1CN(Cc2nc(Nc3ccc(C(C)(C)C)cc3)c3ccc(-c4ncccc4Cl)cc3n2)C[C@@H](C)O1 [Compound 621, (R,R)-(4-tert-Butyl-phenyl)-[7-(3-chloro-pyridin-2-yl)-2-(2,6-dimethyl-morpholin-4-ylmethyl)-quinazolin-4-yl]-amine]	< 1000 nM
C[C@@H]1CN(Cc2nc(Nc3ccc(F)cc3)c3ccc(-c4ncccc4Cl)cc3n2)C[C@@H](C)O1 [Compound 622, (R,R)-(4-Fluoro-phenyl)-[7-(3-chloro-pyridin-2-yl)-2-(2,6-dimethyl-morpholin-4-ylmethyl)-quinazolin-4-yl]-amine]	< 1000 nM
CC(=O)c1ccc(Nc2nc(CN3C[C@@H](C)O[C@H](C)C3)nc3cc(-c4ncccc4Cl)ccc23)cc1 [Compound 623, (R,R)-1-{4-[7-(3-Chloro-pyridin-2-yl)-2-(2,6-dimethyl-morpholin-4-ylmethyl)-quinazolin-4-ylamino]-phenyl}-ethanone]	< 1000 nM
C[C@@H]1CN(Cc2nc(Nc3ccc(Cl)cc3)c3ccc(-c4ncccc4Cl)cc3n2)C[C@@H](C)O1 [Compound 624, (R,R)-(4-Chloro-phenyl)-[7-(3-chloro-pyridin-2-yl)-2-(2,6-dimethyl-morpholin-4-ylmethyl)-quinazolin-4-yl]-amine]	< 1000 nM
CC(C)c1ccc(Nc2nc(CN3C[C@@H](C)O[C@H](C)C3)nc3cc(-c4ncccc4Cl)ccc23)cc1 [Compound 625, (R,R)-(4-Isopropyl-phenyl)-[7-(3-chloro-pyridin-2-yl)-2-(2,6-dimethyl-morpholin-4-ylmethyl)-quinazolin-4-yl]-amine]	< 1000 nM

Now from value to compound:

Ki	Compound
< 1000 nM	CCc1ccc(Nc2nc(CN3C[C@@H](C)O[C@H](C)C3)nc3cc(-c4ncccc4Cl)ccc23)cc1 [Compound 626, (R,R)-(4-Ethyl-phenyl)-[7-(3-chloro-pyridin-2-yl)-2-(2,6-dimethyl-morpholin-4-ylmethyl)-quinazolin-4-yl]-amine]
< 1000 nM	CCN1CCN(Cc2nc(Nc3ccc(C(F)(F)F)cc3)c3ccc(-c4ncccc4C(F)(F)F)cc3n2)CC1 [Compound 628, [2-(4-Ethyl-piperazin-1-ylmethyl)-7-(3-trifluoromethyl-pyridin-2-yl)-quinazolin-4-yl]-(4-trifluoromethyl-phenyl)-amine]
< 1000 nM	CC(C)Oc1ccc(Nc2nc(CN3C[C@@H](C)O[C@H](C)C3)nc3cc(-c4ncccc4Cl)ccc23)cn1 [Compound 629, (R,R)-[7-(3-Chloro-pyridin-2-yl)-2-(2,6-dimethyl-morpholin-4-ylmethyl)-quinazolin-4-yl]-(6-isopropoxy-pyridin-3-yl)-amine]
< 1000 nM	C[C@@H]1CN(Cc2nc(Nc3ccc(C#N)cc3)c3ccc(-c4ncccc4Cl)cc3n2)C[C@@H](C)O1 [Compound 630, (R,R)-4-[7-(3-Chloro-pyridin-2-yl)-2-(2,6-dimethyl-morpholin-4-ylmethyl)-quinazolin-4-ylamino]-benzonitrile]
< 1000 nM	CC(C)S(=O)(=O)c1ccc(Nc2nc(CN3C[C@@H](C)O[C@H](C)C3)nc3cc(-c4ncccc4Cl)ccc23)cc1 [Compound 631, (R,R)-[7-(3-Chloro-pyridin-2-yl)-2-(2,6-dimethyl-morpholin-4-ylmethyl)-quinazolin-4-yl]-[4-(propane-2-sulfonyl)-phenyl]-amine]
< 1000 nM	C[C@@H]1CN(Cc2nc(Nc3ccc(C(C)(C)C)nc3)c3ncc(-c4ncccc4Cl)cc3n2)C[C@H](C)O1 [Compound 632, (6-tert-Butyl-pyridin-3-yl)-[7-(3-chloro-pyridin-2-yl)-2-(2,6-dimethyl-morpholin-4-ylmethyl)-pyrido[3,2-d]pyrimidin-4-yl]-amine (cis)]
< 1000 nM	C[C@@H]1CN(Cc2nc(Nc3ccc(C(C)(C)C)cc3)c3ncc(-c4ncccc4Cl)cc3n2)C[C@H](C)O1 [Compound 633, (4-tert-Butyl-phenyl)-[7-(3-chloro-pyridin-2-yl)-2-(2,6-dimethyl-morpholin-4-ylmethyl)-pyrido[3,2-d]pyrimidin-4-yl]-amine (cis)]
< 1000 nM	CC1CN(Cc2nc(Nc3ccc(C(F)(F)F)cc3)c3ccc(-c4ncccc4Cl)cc3n2)CC(C)N1 (stereo not drawn) [Compound 634, [7-(3-Chloro-pyridin-2-yl)-2-(3,5-dimethyl-piperazin-1-ylmethyl)-quinazolin-4-yl]-(4-trifluoromethyl-phenyl)-amine]
< 1000 nM	Cc1cccnc1-c1ccc2c(Nc3ccc(C(C)(C)C)cc3)nc(CN3C[C@@H](C)O[C@@H](C)C3)nc2c1 [Compound 635, (4-tert-Butyl-phenyl)-[2-(2,6-dimethyl-morpholin-4-ylmethyl)-7-(3-methyl-pyridin-2-yl)-quinazolin-4-yl]-amine (cis)]
< 1000 nM	C[C@@H]1CN(Cc2nc(Nc3ccc(C(C)(C)C)cc3)c3ccc(-c4ccccn4)cc3n2)C[C@H](C)O1 [Compound 636, (4-tert-Butyl-phenyl)-[2-(2,6-dimethyl-morpholin-4-ylmethyl)-7-pyridin-2-yl-quinazolin-4-yl]-amine (cis)]
